# Measured values reported in patent US20110015066A1, “Herbicidal Composition” (priority 2008, published 2011).
# Columns and labels:
# [1] = Accelerated Heat Stability of compositions: active ingredient content before and after 14 days; format: physicochemical; details: 1 %
# Experimental: The numbers of formulations were made up as described in above examples. The concentration of Clodinafop propargyl (15%)+Metsulfuron methyl (1%) 16% WP was tested for its active stability at elevated temperature (54±2° C.) and at 3 different pH ranges as shown below.
# The storage stability of the compositions according the present invention was compared with the storage stability of compositions individually and in combination as Tank, mix and plant mixes. The term Tank mix means that clodinafop-propargyl and metsulfuron methyl are mixed in the tank at the time of spraying. The term plant mix means that ready mix of the clodinafop-propargyl and metsulfuron methyl are diluted in the tank before spraying.
# [2] = test system: broad leaf weeds; test: Field trial in wheat: weed population and biomass of broad leaf weeds; format: in vivo
# Experimental: Parts and percentages are by weight unless otherwise indicated. Field tests were made at various trial sites. The performance of the new combination herbicide according to the present invention (Clodinafop 15% and metsulfuron methyl 1%), Metsulfuron methyl 20% WP and Clodinafop-propargyl 15% WP was evaluated against weed flora in wheat crop during rabi season. Recommended package of practices for wheat crop was followed to raise the crop. The herbicide treatments were applied as post emergence spray at 35 days after sowing (DAS). The data on weed population (number/m^2) and dry matter (gm/m^2) was taken after 60 days after sowing and at the harvest. Similar yields (quintal/hectare i.e. q/ha.) and yield attributed parameters like plant height, number of effective tiller, number of grain per ear-head, test weight were recorded at harvest. A statistical analysis of the entire data was carried out.
# The major weed flora recorded in the experimental field were grasses like Phalaris minor and Avena fatua and broad leaf weeds namely Chenopodium album, Rumex sp., Convolvulus arvensis, Melilotus alba, Medicago denticulata, Fumaria sp. Vicia sativa and Anagalis arvensis.
# [3] = test system: Susceptible plants; details: after post-emergence treatment; cited from earlier work
smiles,measurement,setting,value
"COC(=O)c1ccccc1S(=O)(=O)NC(=O)Nc1nc(C)nc(OC)n1 [metsulfuron methyl, methyl 2-(4-methoxy-6-methyl-1,3,5-triazin-2-ylcarbamoylsulfamoyl)benzoate]",Metsulfuron methyl % degradation,[1]; pH 4.5,24.67%
same,Metsulfuron methyl % degradation,[1]; pH 6.8,12.64%
same,Metsulfuron methyl % degradation,[1]; pH 8.5,4.82%
same,control of broad leaf weeds (in words),[2],superior control of broad leaf weeds only
same,time in which susceptible plants are killed,[3],7 to 21 days
